Results on 27 compounds are retold here after US8299111B2, “Compounds which modulate the CB2 receptor” (Boehringer Ingelheim International GmbH, priority 2006, dated 2012).

The target of this experiment is T1, human CB2R (Homo sapiens, UniProt P34972).
T1 construct: host or cells: CHO cells
T1 sequence (P34972 whole entry): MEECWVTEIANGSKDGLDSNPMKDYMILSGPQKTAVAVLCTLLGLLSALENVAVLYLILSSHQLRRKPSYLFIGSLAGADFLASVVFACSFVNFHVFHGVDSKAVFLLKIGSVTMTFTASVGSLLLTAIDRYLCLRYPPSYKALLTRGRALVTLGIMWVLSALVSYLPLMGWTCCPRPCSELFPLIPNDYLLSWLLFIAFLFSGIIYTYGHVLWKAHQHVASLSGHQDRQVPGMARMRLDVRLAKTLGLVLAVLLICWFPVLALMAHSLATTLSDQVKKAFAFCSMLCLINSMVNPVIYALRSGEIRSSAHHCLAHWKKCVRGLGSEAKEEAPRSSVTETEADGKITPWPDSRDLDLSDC
The experiment is described as follows: CB2R mediated modulation of cAMP synthesis. The format is cell-based. To be noted: found through the use of the above described assays (binding and cAMP); CHO cells expressing human CB2R, forskolin-stimulated cAMP. The procedure, abridged: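 EC50 values reflect inhibition of cAMP made in response to 10 uM forskolin (with 1 mM IBMX, 0.25% BSA) over 30 min at 37 °C in human CB2R-expressing CHO cells. The window runs from forskolin alone to 1 uM CP55940; curves fitted with a four-parameter logistic model.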
Consider `Cc1ccc(S(=O)(=O)C(C)(C)C(=O)Nc2cccc(C(F)(F)F)n2)cc1` [2-Methyl-2-(toluene-4-sulfonyl)-N-(6-trifluoromethyl-pyridin-2-yl)-propionamide], for which the agonistic activity entry is on record as “agonistic activity”.

Take `COc1ccc(S(=O)(=O)C(C)(C)C(=O)Nc2nc(C(C)(C)C)cs2)cc1` [N-(4-tert-butyl-1,3-thiazol-2-yl)-2-[(4-methoxyphenyl)sulfonyl]-2-methylpropanamide]: the agonistic activity entry was “agonistic activity”.

In the case of `Cc1nc(NC(=O)C(C)(C)S(=O)(=O)c2ccc(C(F)(F)F)cc2)sc1C(C)(C)C` [N-(5-tert-Butyl-4-methyl-thiazol-2-yl)-2-methyl-2-(4-trifluoromethyl-benzenesulfonyl)-propionamide], the agonistic activity entry is given as “agonistic activity”.

For `CC(C)(C(=O)Nc1nc(C(F)(F)F)cs1)S(=O)(=O)c1ccc(C(F)(F)F)nc1` [2-methyl-2-{[6-(trifluoromethyl)pyridin-3-yl]sulfonyl}-N-[4-(trifluoromethyl)-1,3-thiazol-2-yl]propanamide], the agonistic activity result is on record as “agonistic activity”.

Turning to `Cc1ccc(S(=O)(=O)C(C)(C)C(=O)Nc2cc(C(C)(C)C)on2)c(F)c1` [N-(5-tert-Butyl-isoxazol-3-yl)-2-(2-fluoro-4-methyl-benzenesulfonyl)-2-methyl-propionamide], the agonistic activity result is “agonistic activity”.

Take `Cc1nc(NC(=O)C2(S(=O)(=O)c3ccc(C(F)(F)F)cc3)CCC2)sc1C(C)(C)C` [1-(4-Trifluoromethyl-benzenesulfonyl)-cyclobutanecarboxylic acid (5-tert-butyl-4-methyl-thiazol-2-yl)-amide]: the agonistic activity entry is given as “agonistic activity”.

In the case of `CC(C)(C(=O)Nc1ccc(F)c(C(F)(F)F)c1)S(=O)(=O)c1ccc(Cl)cc1` [2-[(4-chlorophenyl)sulfonyl]-N-[4-fluoro-3-(trifluoromethyl)phenyl]-2-methylpropanamide], the agonistic activity entry was “agonistic activity”.

Turning to `CC(C)(C)c1csc(NC(=O)C(C)(C)S(=O)(=O)c2ccc(Cl)nc2)n1` [N-(4-tert-Butyl-thiazol-2-yl)-2-(6-chloro-pyridine-3-sulfonyl)-2-methyl-propionamide], the agonistic activity entry is listed as “agonistic activity”.

Take `CC(C)(C(=O)Nc1nc(C(F)(F)F)cs1)S(=O)(=O)c1ccccc1` [2-Benzenesulfonyl-2-methyl-N-(4-trifluoromethyl-thiazol-2-yl)-propionamide]: the agonistic activity result is listed as “agonistic activity”.

Take `Cc1ccc(S(=O)(=O)C(C)(C)C(=O)Nc2nc(C)c(C(C)(C)C)s2)cc1` [N-(5-tert-Butyl-4-methyl-thiazol-2-yl)-2-methyl-2-(toluene-4-sulfonyl)-propionamide]: the agonistic activity entry is “agonistic activity”.

As for `CC(C)(C)c1ccccc1NC(=O)C(C)(C)S(=O)(=O)c1ccc(Cl)cc1` [N-(2-tert-Butyl-phenyl)-2-(4-chloro-benzenesulfonyl)-2-methyl-propionamide], the agonistic activity result is given as “agonistic activity”.

Regarding `CC(C)(C(=O)Nc1ccc2ccccc2n1)S(=O)(=O)c1ccc(C(F)(F)F)nc1` [2-methyl-N-quinolin-2-yl-2-{[6-(trifluoromethyl)pyridin-3-yl]sulfonyl}propanamide], the agonistic activity entry was “agonistic activity”.

`Cn1nc(C(C)(C)C)cc1NC(=O)C(C)(C)S(=O)(=O)c1ccccc1` [2-Benzenesulfonyl-N-(5-tert-butyl-2-methyl-2H-pyrazol-3-yl)-2-methyl-propionamide]: the agonistic activity result is on record as “agonistic activity”.

As to `CC(C)(C(=O)Nc1cccc(C(F)(F)F)n1)S(=O)(=O)c1ccc(Cl)cc1` [2-(4-Chloro-benzenesulfonyl)-2-methyl-N-(6-trifluoromethyl-pyridin-2-yl)-propionamide], the agonistic activity entry is “agonistic activity”.

With `CCc1sc(NC(=O)C(C)(C)S(=O)(=O)c2ccc(S(C)(=O)=O)cc2)nc1-c1ccccc1` [N-(5-ethyl-4-phenyl-1,3-thiazol-2-yl)-2-methyl-2-{[4-(methylsulfonyl)phenyl]sulfonyl}propanamide], the agonistic activity entry was “agonistic activity”.

For the compound `CC(C)(C)c1cc(NC(=O)C(C)(C)S(=O)(=O)c2ccc(Cl)cc2)no1` [N-(5-tert-Butyl-isoxazol-3-yl)-2-(4-chloro-benzenesulfonyl)-2-methyl-propionamide], the agonistic activity result is recorded as “agonistic activity”.

For the compound `CC(C)(C(=O)Nc1ccc(C(F)(F)F)cc1F)S(=O)(=O)c1ccc(Cl)cc1` [2-[(4-chlorophenyl)sulfonyl]-N-[2-fluoro-4-(trifluoromethyl)phenyl]-2-methylpropanamide], the agonistic activity entry is “agonistic activity”.

Take `COc1ccc(S(=O)(=O)C(C)(C)C(=O)Nc2cc(C(C)(C)C)on2)cn1` [N-(5-tert-Butyl-isoxazol-3-yl)-2-(6-methoxy-pyridine-3-sulfonyl)-2-methyl-propionamide]: the agonistic activity entry is “agonistic activity”.

`CC(C)(C)c1cc(NC(=O)C(C)(C)S(=O)(=O)c2ccc(F)cc2)no1` [N-(5-tert-Butyl-isoxazol-3-yl)-2-(4-fluoro-benzenesulfonyl)-2-methyl-propionamide]: the agonistic activity entry is recorded as “agonistic activity”.

`Cn1nc(C(C)(C)C)cc1NC(=O)C(C)(C)S(=O)(=O)c1ccc(C#N)cc1F` [N-(5-tert-Butyl-2-methyl-2H-pyrazol-3-yl)-2-(4-cyano-2-fluoro-benzenesulfonyl)-2-methyl-propionamide]: the agonistic activity entry was “agonistic activity”.

Consider `CC(C)(C)c1cc(NC(=O)C(C)(C)S(=O)(=O)c2ccccc2)no1` [2-Benzenesulfonyl-N-(5-tert-butyl-isoxazol-3-yl)-2-methyl-propionamide], for which the agonistic activity result was “agonistic activity”.

As to `Cc1ccc(S(=O)(=O)C(C)(C)C(=O)Nc2cc(C(C)(C)C)nn2C)cc1F` [N-(5-tert-Butyl-2-methyl-2H-pyrazol-3-yl)-2-(3-fluoro-4-methyl-benzenesulfonyl)-2-methyl-propionamide], the agonistic activity entry is on record as “agonistic activity”.

Consider `CC(C)(C)c1cc(NC(=O)C(C)(C)S(=O)(=O)c2ccc(Cl)cc2)on1` [N-(3-tert-Butyl-isoxazol-5-yl)-2-(4-chloro-benzenesulfonyl)-2-methyl-propionamide], for which the agonistic activity entry was “agonistic activity”.

As for `Cc1ccc(S(=O)(=O)C(C)(C)C(=O)Nc2ccc(C(F)(F)F)cn2)cn1` [2-Methyl-2-(6-methyl-pyridine-3-sulfonyl)-N-(5-trifluoromethyl-pyridin-2-yl)-propionamide], the agonistic activity entry is reported as “agonistic activity”.

As for `CC(C)(C(=O)Nc1nc(-c2cccnc2)cs1)S(=O)(=O)c1ccc(Cl)cc1` [2-(4-Chloro-benzenesulfonyl)-2-methyl-N-(4-pyridin-3-yl-thiazol-2-yl)-propionamide], the agonistic activity result is given as “agonistic activity”.

As to `CC(C)(C)c1cnc(NC(=O)C(C)(C)S(=O)(=O)c2ccc(Cl)cc2)s1` [N-(5-tert-Butyl-thiazol-2-yl)-2-(4-chloro-benzenesulfonyl)-2-methyl-propionamide], the agonistic activity entry is listed as “agonistic activity”.

Consider `CC(C)(C)c1cc(NC(=O)C(C)(C)S(=O)(=O)c2ccc(C(F)(F)F)cc2)no1` [N-(5-tert-Butyl-isoxazol-3-yl)-2-methyl-2-(4-trifluoromethyl-benzenesulfonyl)-propionamide], for which the agonistic activity entry was “agonistic activity”.
